Assay results reported in patent publication EP0326329B1, “Quinazoline derivatives useful as insecticides” (Dow AgroSciences LLC, priority 1988, dated 1989).

Legend:
Type in all cases: in vivo
[1] = tested on: Pyricularia oryzae (rice blast); conditions: disease control rating, foliar spray, host rice; 400 ppm (+++ at 100 ppm)
[2] = tested on: southern armyworm (Spodopetra eridania Cramer); assay: Mite/insect screen, sprayed squash leaves (SAW); conditions: percent mortality; for mortality at 200 ppm / mortality at 400 ppm: Spodoptera eridania, read-out: SAW RESULTS %
Method in brief: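 Compounds were dissolved in 50:50 acetone/alcohol containing sulfonate/nonionic emulsifier blends (23 g and 13 g per liter) and diluted with water to test concentrations. Leaves were sprayed on both surfaces to runoff and dried for one hour. Percent mortality and phytotoxicity were scored after standard exposure periods.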

[3] = tested on: Puccinia recondita tritici (leaf rust); assay: Greenhouse Test 1, foliar spray fungicide screen (LEAF RUST), host wheat; conditions: disease control rating, 400 ppm (+++ at 100 ppm)
[4] = tested on: Southern corn rootworm (Diabrotica undecimpuctata howardi Barber); assay: Mite/insect screen, soil treatment (CRW); conditions: percent mortality, soil treatment; for mortality at 12 ppm / mortality at 24 ppm: Diabrotica, read-out: CRW RESULTS %
Method in brief: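 Compounds dissolved in acetone/alcohol (50:50) with Toximul R/S emulsifiers, diluted with water. Soil (15 g, with presoaked corn seed) treated with 1 mL test solution, dried 6–12 h, then five 2–3 instar larvae added; held at 23°C. Percent mortality and phytotoxicity scored after standard exposure periods.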

[5] = tested on: Erysiphe graminis tritici (powdery mildew); assay: Greenhouse Test 1, foliar spray fungicide screen (POWD MDEW), host wheat; conditions: disease control rating, 400 ppm (+++ at 100 ppm)
[6] = tested on: melon aphids (Aphis gossypii Glover); assay: Mite/insect screen, sprayed squash cotyledons (MA); conditions: percent mortality; for mortality at 200 ppm / mortality at 400 ppm: Aphis gossypii, read-out: MA RESULTS %
Method in brief: (§1)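 Mortality and phytotoxicity read after standard exposure periods on sprayed squash: cotyledons for melon aphids and twospotted spider mites, excised leaves placed with southern armyworm larvae. Spray solutions were water dilutions of acetone/alcohol stocks containing TOXIMUL R and S emulsifiers, applied to runoff at 10 psi and air-dried one hour.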

[7] = tested on: Pseudoperonospora cubensis (downy mildew); assay: Greenhouse Test 1, foliar spray fungicide screen (DOWN MDEW), host squash; conditions: disease control rating, 400 ppm (+++ at 100 ppm)
[8] = tested on: Botrytis cinerea (gray mold); assay: Greenhouse Test 1, foliar spray fungicide screen (GRAY MOLD), host grape berries; conditions: disease control rating, 400 ppm (+++ at 100 ppm)
[9] = tested on: Twospotted spider mites (Tetranychus urticae Koch); assay: Mite/insect screen, sprayed squash cotyledons (SM); conditions: percent mortality; for mortality at 200 ppm / mortality at 400 ppm: Tetranychus urticae, read-out: SM RESULTS %
Method in brief: as §1

Compound	RICE BLAST [1]	mortality at 200 ppm ([2]; spray rate 200 ppm) [%]	mortality at 400 ppm ([2]; spray rate 400 ppm) [%]	LEAF RUST [3]	mortality at 12 ppm ([4]; CRW rate 12.00 ppm) [%]	mortality at 24 ppm ([4]; CRW rate 24.00 ppm) [%]	POWD MDEW [5]	mortality at 200 ppm ([6]; spray rate 200 ppm) [%]	mortality at 400 ppm ([6]; spray rate 400 ppm) [%]	DOWN MDEW [7]	GRAY MOLD [8]	mortality at 200 ppm ([9]; spray rate 200 ppm) [%]	mortality at 400 ppm ([9]; spray rate 400 ppm) [%]	also measured
CC(C)(C)c1ccc(CCCOc2ncnc3ccccc23)cc1 [Example 138, 4-[3-[4-(1,1-dimethylethyl)phenyl]propoxy]quinazoline]	+ (+ = 20-89% control at 400 ppm)	0	0	- (- = 0-19% control at 400 ppm)	0	0	++ (++ = 90-100% control at 400 ppm)	30	60	++ (++ = 90-100% control at 400 ppm)	- (- = 0-19% control at 400 ppm)	0	80	
c1ccc(Oc2cccc(CCOc3ncnc4ccccc34)c2)cc1 [Example 68, 4-[2-(3-phenoxyphenyl)ethoxy]quinazoline]	+++ (+++ = 90-100% control at 100 ppm)		0	+++ (+++ = 90-100% control at 100 ppm)		0	+++ (+++ = 90-100% control at 100 ppm)		100	+++ (+++ = 90-100% control at 100 ppm)	- (- = 0-19% control at 400 ppm)		90	
Fc1cccc2c(OCCc3cccc(Oc4ccccc4)c3)ncnc12 [Example 163, 8-fluoro-4-[2-(3-phenoxyphenyl)ethoxy]quinazoline]	+++ (+++ = 90-100% control at 100 ppm)	80	40	+++ (+++ = 90-100% control at 100 ppm)	0	0	+++ (+++ = 90-100% control at 100 ppm)	80	80	+++ (+++ = 90-100% control at 100 ppm)	- (- = 0-19% control at 400 ppm)	0	20	
Fc1cccc2c(NCC(c3ccccc3)c3ccccc3)ncnc12 [Example 61, N-(2,2-diphenylethyl)-8-fluoro-4-quinazolinamine]	- (- = 0-19% control at 400 ppm)	0	0	- (- = 0-19% control at 400 ppm)	0	0	- (- = 0-19% control at 400 ppm)	0	0	- (- = 0-19% control at 400 ppm)	- (- = 0-19% control at 400 ppm)	0	0	SAW RESULTS % ([2]; spray rate 200 ppm): 0%; CRW RESULTS % ([4]; CRW rate 12.00 ppm): 0%; MA RESULTS % ([6]; spray rate 200 ppm): 0%; SM RESULTS % ([9]; spray rate 200 ppm): 0%
Cc1cccc2c(OCCc3ccc(C(C)(C)C)cc3)ncnc12 [Example 139, 8-methyl-4-[2-[4-(1,1-dimethylethyl)phenyl]ethoxy]quinazoline]	+++ (+++ = 90-100% control at 100 ppm)	0	0	+ (+ = 20-89% control at 400 ppm)	0	0	+ (+ = 20-89% control at 400 ppm)	30	0	++ (++ = 90-100% control at 400 ppm)	- (- = 0-19% control at 400 ppm)		100	
Cc1ccc(CCOc2ncnc3c(F)cccc23)cc1 [Example 99]	- (- = 0-19% control at 400 ppm)	0	0	+++ (+++ = 90-100% control at 100 ppm)	0	0	+++ (+++ = 90-100% control at 100 ppm)	100	0	+++ (+++ = 90-100% control at 100 ppm)	- (- = 0-19% control at 400 ppm)	100	0	
[3-(3-methoxyphenyl)propyl]quinazoline [Example 72]	+ (+ = 20-89% control at 400 ppm)			+++ (+++ = 90-100% control at 100 ppm)			++ (++ = 90-100% control at 400 ppm)			++ (++ = 90-100% control at 400 ppm)	- (- = 0-19% control at 400 ppm)			SAW RESULTS % ([2]; spray rate 400 ppm): 100%; CRW RESULTS % ([4]; CRW rate 24.00 ppm): 0%; MA RESULTS % ([6]; spray rate 400 ppm): 0%; SM RESULTS % ([9]; spray rate 400 ppm): 0%
Fc1cccc2c(OCCc3ccc(-c4ccccc4)cc3)ncnc12 [Example 116, 8-fluoro-4-[2-(1,1'-biphenyl)-4-ylethoxy]quinazoline]	+++ (+++ = 90-100% control at 100 ppm)			+ (+ = 20-89% control at 400 ppm)	0	0	++ (++ = 90-100% control at 400 ppm)		0	+++ (+++ = 90-100% control at 100 ppm)	- (- = 0-19% control at 400 ppm)		0	SAW RESULTS % ([2]; spray rate 200 ppm): 0%; SAW RESULTS % ([2]; spray rate 400 ppm): 0%
CC(C)(C)c1ccc(CCCNc2ncnc3ccc(Cl)cc23)cc1 [Example 140, 6-chloro-N-(3-[4-(1,1-dimethylethyl)phenyl]propyl]-4-quinazoline]	++ (++ = 90-100% control at 400 ppm)	0	0	+ (+ = 20-89% control at 400 ppm)	0	0	+ (+ = 20-89% control at 400 ppm)	0	0	++ (++ = 90-100% control at 400 ppm)	- (- = 0-19% control at 400 ppm)	0	80	
Clc1ccc(CCNc2ncnc3ccc(Br)cc23)cc1 [Example 37, N-[2-(4-chlorophenyl)ethyl]-6-bromo-4-quinazolinamine]	- (- = 0-19% control at 400 ppm)	0	0	- (- = 0-19% control at 400 ppm)	0	0	- (- = 0-19% control at 400 ppm)	0	0	- (- = 0-19% control at 400 ppm)	- (- = 0-19% control at 400 ppm)	0	0	
Clc1ccc2ncnc(NCCc3ccccc3Oc3ccccc3)c2c1 [Example 57, 6-chloro-N-[2-(2-phenoxyphenyl)ethyl]-4-quinazolinamine]	- (- = 0-19% control at 400 ppm)	80	0	- (- = 0-19% control at 400 ppm)	0	0	- (- = 0-19% control at 400 ppm)	0	0	- (- = 0-19% control at 400 ppm)	- (- = 0-19% control at 400 ppm)	0	0	SAW RESULTS % ([2]; spray rate 200 ppm): 100%; CRW RESULTS % ([4]; CRW rate 12.00 ppm): 0%; MA RESULTS % ([6]; spray rate 200 ppm): 0%; SM RESULTS % ([9]; spray rate 200 ppm): 0%
CC(COc1ncnc2ccccc12)c1cccc(Oc2ccccc2)c1 (stereo not drawn) [Example 182, 4-[2-(3-phenoxyphenyl)propoxy]quinazoline]	- (- = 0-19% control at 400 ppm)	0	0	++ (++ = 90-100% control at 400 ppm)	0	0	++ (++ = 90-100% control at 400 ppm)	80	100	- (- = 0-19% control at 400 ppm)	- (- = 0-19% control at 400 ppm)	0	80	
c1ccc(C(COc2ncnc3ccccc23)c2ccccc2)cc1 [Example 67, 4-(2,2-diphenylethoxy)quinazoline]	+ (+ = 20-89% control at 400 ppm)		0	- (- = 0-19% control at 400 ppm)		0	+ (+ = 20-89% control at 400 ppm)		30	++ (++ = 90-100% control at 400 ppm)	- (- = 0-19% control at 400 ppm)		60	
